Assay results published in patent publication US11242344B2, “(4-hydroxypyrrolidin-2-yl)-heterocyclic compounds and methods of use thereof” (Genentech, Inc., priority 2017, dated 2022).

Tests used:
VHL Elongin B/C complex = VHL Elongin B/C complex (Homo sapiens (Human), UniProt P40337); test: Fluorescence Polarization (FP) VHL Binding Assay; details: VHL binding, FP assay; geometric mean where more than one measurement
Protocol: The binding of test compounds to the VHL Elongin B/C complex was measured using a fluorescence polarization tracer competition assay. The VHL/Elongin B/C protein complex used in the assay was generated as follows. The coding region for amino acids E55-D213 of human VHL with N-terminal His6 tag with a TEV-protease cleavage site was co-expressed with Elongin B (residues M1-Q118) and Elongin C (Residues M17-C112) in E. coli. […] The purified VHL/Elongin B/C complex was dialyzed into formulation buffer: 20 mM Bis-Tris pH7.0, 150 mM NaCl, 1 mM DTT. A VHL fluorescence polarization probe (prepared in Example 91), consisted of a VHL ligand coupled to carboxytetramethylrhodamine (TAMRA); […] Compounds were prepared as a serial dilution in DMSO at a concentration 25-fold higher than the final desired concentration and acoustically dispensed (400 nl) into a ProxiPlate-384 Plus F, Black 384-shallow well Microplate (Part Number 6008260). DMSO was dispensed into wells designated for “VHL control” (without compound) wells. The “Assay Buffer” consisted of 50 mM Tris pH 8.0, 120 mM NaCl, 0.005% Nonidet P-40, and 1% DMSO (v/v). Assay Buffer containing […] VHL Elongin B/C complex was prepared and 5 μl dispensed using a BioRapTR (Beckman Coulter) into each well of the assay plate. Assay Buffer was also dispensed into “no VHL control” wells using the same method. A “pre-assay” fluorescence measurement was made using an Infinite® M1000 (Tecan) plate reader (Excitation 530 nm, Emission 574 nm, Bandwidth 10 nm). Assay Buffer containing 3.34 nM of the VHL FP probe was prepared in Assay Buffer and 5 μl dispensed into each well of the assay plate using a BioRapTR (Beckman Coulter). The final VHL/Elongin B/C protein concentration is 2.64 nM and the final probe concentration is 1.67 nM. Assay plates were briefly centrifuged and incubated for 1 hour at room temperature. “Post-assay” fluorescence polarization measurements were made as described for the “pre-assay” fluorescence measurement. Fluorescence polarization was calculated for each sample; taking into account the “pre-assay” fluorescence measurements and subtracting the fluorescence signal of the compound/VHL only (“pre-assay”) measurements from the “post-assay” fluorescence polarization measurements, for each plane of polarization. The data were analyzed using Genedata Screener software and normalized to the “no VHL control” and “VHL control” (without compound). IC50 values were calculated using a four parameter curve fit (Robust method).

[1] = molecular target: VHL co-expressed with Elongins B and C (Homo sapiens (Human), UniProt P40337); test: Surface Plasmon Resonance Assay; type: binding; details: SPR measured VHL affinity; geometric mean where more than one measurement
Protocol: Using a Biacore T200, […] tagged VHL co-expressed with Elongins B and C were immobilized to a Biacore SA chip in running buffer without DMSO. Compounds were tested individually at varying concentrations in running buffer (50 mM HEPES pH 7.2, 150 mM NaCl, 0.5 mM TCEP, 0.001% Tween 20, 0.2% PEG3350, 2% DMSO) at 20° C. Sensorgrams were run in order from low to high concentration using a flow rate of 80 μL/min. Association and disassociation times were varied depending on the estimated potency of the compound tested. […] Galdeano et al, J. Med. Chem. 2014, 57, 8657-8663, herein incorporated by reference) which retained greater than 75% of the activity over the course of the run. Analysis of the binding curves and determination of the kinetic parameters were done using evaluation software (Version 2.0, Biacore).

[2] = molecular target: NanoLuc VHL fusion protein (Homo sapiens (Human), UniProt P40337); test: VHL HEK-293 BRET Assay (NanoBRET Target Engagement); type: cell-based; details: geometric mean where more than one measurement
Protocol: The VHL NanoBRET™ Target Engagement Assay analyzes the apparent affinity of test compounds for VHL in cells by competitive displacement of a VHL NanoBRET™ tracer reversibly bound to a NanoLuc® VHL fusion protein stably expressed in the cells. Test compounds were transferred to the assay plate (384 Well White Non-Binding Corning Assay Plates (Corning-3574)) using an Echo 555 Liquid Handler (Labcyte) in 2.5 nL increments and, as appropriate, intermediate stock concentrations of compounds, in order to prepare a titration series. 50 nL of control compound (10 mM; parental unlabeled VHL antagonist; see structure below) and 50 nL of DMSO (negative control) were dispensed into the appropriate control wells. DMSO was backfilled to a final volume of 50 nL as required. 50 nl per well of 1 mM VHL NanoBRET™ Tracer in DMSO (NanoBRET™ Tracer-PEG2-590 (see structure below)) was transferred into each well using an Echo 555 (ultimately yielding a final concentration of 1 uM). HEK 293 RT VHL-NanoLuc® stable cells were cultured in DMEM High Glucose with Pyruvate, 10% fetal bovine serum, 2 mg/mL of Geneticin Selective Antibiotic (50 mg/ml) and 2 mM HEPES (1 M). Cells were seeded in Opti-MEM (Life Technologies-11058-021), 1.7×10^5 cells/mL, 40 μl per well into the assay plate, centrifuged at 500 rpm for 30 seconds and incubated for 2 hours. Max Signal control wells consisted of DMSO only treated wells. Minimum Signal control wells contained of 10 uM parental unlabeled VHL antagonist (control compound—see structure below). 3× Complete Substrate plus Inhibitor Solution was prepared in Opti-MEM (consists of a 1:166 dilution of NanoBRET™ Nano-Glo® Substrate plus a 1:500 dilution of Extracellular NanoLuc® Inhibitor in Opti-MEM), and 20 ul was dispensed into each well of the 384-well plate and centrifuged at 1000 rpm for 1 minute, then incubated for 2 minutes at room temperature. Background Signal control wells were prepared without tracer for background correction steps. Plates were read using a PerkinElmer Envision Reader (model 2104-0020) equipped with Luminescence option (Mirror: BRET2 Enh (PE Barcode 659), Emission Filter: Omega 610LP (Barcode 504), 2nd Emission Filter: Umbelliferone 460 (Barcode 207), Measurement height: 6.5 mm, Measurement time: 1 s). The raw BRET ratio values were calculated by dividing the acceptor emission value (610 nm) by the donor emission value (460 nm) for each sample. To correct for background, the BRET ratio in the absence of tracer (average of no-tracer control samples) was subtracted from the BRET ratio of each sample. Raw BRET units were converted to milliBRET units (mBU) by multiplying each raw BRET value by 1,000. The normalized NanoBRET™ signal was calculated relative to the Max Signal control wells (DMSO treated control wells) and the Minimum Signal control wells. Percentage inhibition was calculated relative to the Minimum Signal control and Maximum Signal control wells. IC50 values were derived by four parameter curve fitting using the Robust method.

VHL co-expressed with Elongins B and C, sequence (P40337 whole entry, looked up): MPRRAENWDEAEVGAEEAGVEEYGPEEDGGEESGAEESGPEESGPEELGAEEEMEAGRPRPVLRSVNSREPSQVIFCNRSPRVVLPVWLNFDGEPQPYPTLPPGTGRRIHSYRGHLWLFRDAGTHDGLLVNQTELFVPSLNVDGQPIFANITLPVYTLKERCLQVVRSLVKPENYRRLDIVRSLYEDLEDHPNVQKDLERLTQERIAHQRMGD
VHL co-expressed with Elongins B and C, sequence (Q15370 whole entry partner, looked up): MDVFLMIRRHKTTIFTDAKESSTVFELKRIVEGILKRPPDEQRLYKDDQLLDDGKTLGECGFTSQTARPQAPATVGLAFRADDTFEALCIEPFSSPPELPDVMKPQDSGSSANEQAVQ
VHL co-expressed with Elongins B and C, sequence (Q15369 whole entry partner, looked up): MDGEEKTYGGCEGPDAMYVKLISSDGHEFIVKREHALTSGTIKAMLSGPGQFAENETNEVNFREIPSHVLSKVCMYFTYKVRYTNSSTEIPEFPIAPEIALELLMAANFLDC
VHL Elongin B/C complex, sequence (P40337 whole entry, looked up, the tested form may be a part): as the sequence (P40337 whole entry, looked up) above
VHL Elongin B/C complex, sequence (Q15370 whole entry partner, looked up, the tested form may be a part): as the sequence (Q15370 whole entry partner, looked up) above
VHL Elongin B/C complex, sequence (Q15369 whole entry partner, looked up, the tested form may be a part): as the sequence (Q15369 whole entry partner, looked up) above
NanoLuc VHL fusion protein, sequence (P40337 whole entry, looked up, the tested form may be a part): as the sequence (P40337 whole entry, looked up) above
NanoLuc VHL fusion protein, sequence (Q15370 whole entry partner, looked up, the tested form may be a part): as the sequence (Q15370 whole entry partner, looked up) above
NanoLuc VHL fusion protein, sequence (Q15369 whole entry partner, looked up, the tested form may be a part): as the sequence (Q15369 whole entry partner, looked up) above

SMILES | IC50 (VHL Elongin B/C complex) [µM] | Kd [1] [µM] | IC50 [2] [µM]
Cc1cc([C@H](C(=O)N2C[C@H](O)C[C@H]2C2=NOC(c3ccc(Br)cc3)(C(F)(F)F)N2)C(C)C)on1 (single isomer, unassigned) [Example 133.3] | 34.4 | 36.3 | 22.6
Cc1noc(C(C(=O)N2C[C@H](O)CC2C2=NC(=O)[C@](C)(c3ccc(-c4scnc4C)cc3)N2)C(C)C)n1 (single isomer, unassigned) [Example 117.2] | 1.62 | 0.625 | 1.9
Cc1ncsc1-c1ccc([C@]2(C)NC(C3C[C@@H](O)CN3C(=O)C3N(S(C)(=O)=O)CCC3(C)C)=NC2=O)cc1 (single isomer, unassigned) [Example 125.1] | 179 | 14.7 | 100
Cc1ncsc1-c1ccc([C@]2(C)NC(C3C[C@@H](O)CN3C(=O)[C@H](C(C)C)N3Cc4ccccc4C3=O)=NC2=O)cc1 (single isomer, unassigned) [Example 123.2] | 4.68 | 3.98 | 5.48
Cc1cc(C(C(=O)N2C[C@H](O)CC2C2=NC(=O)[C@](C)(c3ccc(-c4scnc4C)cc3)N2)C(C)C)sn1 (single isomer, unassigned) [Example 119.1] | ≥ 400 | 150 | 100
Cc1cc([C@H](C(=O)N2C[C@H](O)C[C@H]2C2=NO[C@@](C)(c3ccc(Br)cc3)N2)C(C)C)on1 (mixture of isomers) [Example 113.2, (2S)-1-((2S,4R)-2-(5-(4-Bromophenyl)-5-methyl-4,5-dihydro-1,2,4-oxadiazol-3-yl)-4-hydroxypyrrolidin-1-yl)-3-methyl-2-(3-methylisoxazol-5-yl)butan-1-one and (2R)-1-((2S,4R)-2-(5-(4-Bromophenyl)-5-methyl-4,5-dihydro-1,2,4-oxadiazol-3-yl)-4-hydroxypyrrolidin-1-yl)-3-methyl-2-(3-methylisoxazol-5-yl)butan-1-one] | 6.3 | 2.49 | 2.94
CC(=O)N1CCCCC1C(=O)N1C[C@H](O)CC1C1=NC(=O)[C@](C)(c2ccc(-c3scnc3C)cc2)N1 (single isomer, unassigned) [Example 124.2] | 32.9 | 10.1 | 54.6
Cc1ncsc1-c1ccc([C@]2(C)NC(C3C[C@@H](O)CN3C(=O)[C@@H](NC(=O)C3(C#N)CC3)C(C)(C)C)=NC2=O)cc1 (single isomer, unassigned) [Example 111.2] | 4.97 | 1.86 | 5.11
Cc1noc(C(C(=O)N2C[C@H](O)CC2C2=NC(=O)[C@](C)(c3ccc(-c4scnc4C)cc3)N2)C(C)C)n1 (single isomer, unassigned) [Example 117.4] | ≥ 400 | 150 | 100
Cc1ncsc1-c1ccc([C@]2(C)NC(C3C[C@@H](O)CN3C(=O)C(c3cnn(C)c3)C(C)C)=NC2=O)cc1 (single isomer, unassigned) [Example 110.4] | ≥ 400 | 150 | ≥ 100
Cc1ncsc1-c1ccc([C@]2(C)NC(C3C[C@@H](O)CN3C(=O)C(c3cnn(C)c3)C(C)C)=NC2=O)cc1 (single isomer, unassigned) [Example 110.3] | ≥ 400 | 150 | ≥ 100
Cc1cc([C@H](C(=O)N2C[C@H](O)C[C@H]2C2=NOC(C)(c3ccccc3)N2)C(C)C)on1 (single isomer, unassigned) [Example 128.3] | 33.6 | 5.7 | 10.7
CCN1N=C([C@@H]2C[C@@H](O)CN2C(=O)C(c2cc(C)no2)C(C)C)NC1(C)C (single isomer, unassigned) [Example 115.1] | ≥ 400 | 150 | 100
Cc1cc([C@@H](C(=O)N2C[C@H](O)C[C@H]2C2=NOC3(CCCC3)N2)C(C)C)on1 [Example 127.1, (S)-1-((2S,4R)-4-hydroxy-2-(1-oxa-2,4-diazaspiro[4.4]non-2-en-3-yl)pyrrolidin-1-yl)-3-methyl-2-(3-methylisoxazol-5-yl)butan-1-one] | ≥ 400 | ≥ 150 | 100
Cc1ncsc1-c1ccc([C@]2(C)NC(C3C[C@@H](O)CN3C(=O)[C@@H]3CCCN3S(C)(=O)=O)=NC2=O)cc1 (single isomer, unassigned) [Example 112.1] | 23.3 | 12.1 | 66.4
Cc1ncsc1-c1ccc([C@]2(C)NC(C3C[C@@H](O)CN3C(=O)C(c3cn(C)nn3)C(C)C)=NC2=O)cc1 (single isomer, unassigned) [Example 118.2] | 0.418 | 0.128 | 0.939
CC(=O)N1CCCCC1C(=O)N1C[C@H](O)CC1C1=NC(=O)[C@](C)(c2ccc(-c3scnc3C)cc2)N1 (single isomer, unassigned) [Example 124.3] | ≥ 400 | ≥ 150 | 100
Cc1cc([C@@H](C(=O)N2C[C@H](O)C[C@H]2C2=NOC3(CCc4ccccc43)N2)C(C)C)on1 (single isomer, unassigned) [Example 130.2] | 362 | 121 | 100
CC/C(=C(\c1ccc(O)cc1)c1ccc(OCCN(C)C(=O)CCCOCCOc2cc(C(C(=O)N3C[C@H](O)CC3C3=NC(=O)[C@](C)(c4ccc(-c5scnc5C)cc4)N3)C(C)C)on2)cc1)c1ccccc1 (single isomer, unassigned) [Example 1003.2] | ≥ 400 | 67.1 | ≥ 100
